Data set [1] concerns vancomycin-resistant Enterococcus faecalis (VanB VRE, strain ATCC 51299). The settings on record: previously reported data; cited from earlier work.
Data set [2] concerns vancomycin-sensitive Staphylococcus aureus (VSSA strain ATCC 25923). The settings on record: previously reported data; cited from earlier work.
Data set [3] concerns VanA VRE (E. faecalis BM 4166 and E. faecium ATCC BAA-2317). Nature of the data set: Cell wall biosynthesis inhibition assay (accumulation of UDPMurNAc-pp 19). It is filed as cell-based, Enterococcus faecalis; Enterococcus faecium. The settings on record: 35 μg/mL, tetracycline pretreated VanA VRE, 30 minutes, 37° C. An excerpt:
The inhibition of bacterial cell wall synthesis was established in an assay that quantitates the accumulation of the peptidoglycan precursor UDP-N-acetyl-muramyl-depsipentapeptide (Compound 19, UDPMurNAc-pp), resulting from inhibited cell wall incorporation following antibiotic treatment. […] This procedure was reduced in scale and modified to enlist reverse-phase HPLC separation, UV detection, and calibration curve determination of the amount of isolated 19, permitting use with limited sample sizes. A larger scale isolation and full characterization of 19 provided the material needed to establish a linear calibration curve.
The bacterial suspension was heated at 100° C. for 15 minutes to release cytosolic 19. The entire supernatant was analyzed by semi-preparative reverse-phase HPLC with a single injection and the amount of 19 was quantitated with use of the calibration curve.
Cultures of vancomycin-resistant Enterococcus faecalis (VanA VRE, BM4166) and Enterococcus faecium (VanA VRE, ATCC BAA-2317) were inoculated and grown in an orbital shaker at 37° C. in 100% brain-heart infusion broth for 12 hours. The above bacterial solution was subjected to a subculture to obtain fresh mid-log phase bacterial cells (total volume of bacterial suspension=5 mL, incubation time=6 hours, OD600=0.6). […] Vancomycin analogues were added and the mixture was incubated at 37° C. for a further 30 minutes.
After the bacteria were harvested (3000 rpm, 4° C., 20 minutes), this bacterial precipitate was washed and resuspended in 5 mM glucose and 5 mM HEPES buffer (500 μL, 1:1, pH=7.2). This bacterial suspension was heated at 100° C. for 15 minutes and centrifuged (13000 rpm, 25° C., 10 minutes). […] [*****Allen et al., Antimicrob. Agents Chemother. 1996, 40(10):2356-2362]; Liu et al., J. Am. Chem. Soc. 2001, 123:9916-9917.] The amount of UDP Mur N-Ac pentapeptide (19) was quantified by use of calibration curves for E. faecalis BM4166, and for E. faecium ATCC BAA-2317 based on the area under the curve (AUC).

The subject of data set [4] is vancomycin-resistant Enterococcus faecalis (VanA VRE, BM4166). Nature of the data set: In vitro antimicrobial assay (MIC), VanA E. faecalis. It is filed as cell-based.
Data set [5] relates to red blood cells (pig whole blood). In words: Hemolysis assay. It is filed as cell-based. The settings on record: assay time extended to 24 hours. As for the experimental part:
The blood cells in pig whole blood (2 mL, Pel-Free Biologicals, non-sterile, sodium citrate) were harvested (3000 rpm, 4° C., 20 minutes), and the red blood precipitate was washed and resuspended in phosphate buffered saline (pH 7.4). This diluted red blood cell stock solution (384 μL) was incubated with the antibiotic solution in DMSO (16 μL) in a 1 mL microtube to achieve the final concentration of the test compounds. […]
The solution was diluted with phosphate buffer saline (pH 7.4, 200 μL) at 25° C. and centrifuged (3000 rpm, 4° C., 20 minutes). The supernatant (200 μL) was transferred to a microtiter plate. A positive control (0.2% vol % Triton® X-100, 100% total hemolysis) and the negative control (no antibiotic, 0% hemolysis) were prepared. A350 was measured using a microplate reader (Molecular Devices®, Max Gemini EX). The % hemolysis was determined by calculating the following equation shown below (eq. 1).
Although the differences in mammalian and bacterial cell wall composition are extensive, including the more highly anionic composition of the bacterial cell wall responsible for a preferential and differential cation binding, lysis of mammalian cell membranes (red blood cells) are potential off-target consequences of cationic compounds that impact bacterial cell membrane integrity. […]

For data set [6] the following is noted: D-Ala-D-Lac versus D-Ala-D-Ala; cited from earlier work.
Data set [7] has as its system vancomycin-resistant Enterococcus faecalis (VanA VRE, BM4166). As to conditions: BM 4166; previously reported data; cited from earlier work.
Data set [8] has as its system Enterococcus faecium (VanA VRE, ATCC BAA-2317). As to conditions: previously reported data; cited from earlier work.
Data set [9] concerns methicillin and oxacillin-resistant Staphylococcus aureus subsp. aureus (MRSA strain ATCC 43300). As to conditions: previously reported data; cited from earlier work.
For data set [10], the system named is Enterococcus faecium (VanA VRE, ATCC BAA-2317). Nature of the data set: In vitro antimicrobial assay (MIC), VanA E. faecium. Format: cell-based.
Data set [11] has as its system VanA VRE (E. faecalis BM 4166 and E. faecium ATCC BAA-2317). Nature of the data set: Cell wall permeability assay (propidium iodide uptake). Format: cell-based, Enterococcus faecalis; Enterococcus faecium. As to conditions: 10 μM compound.
Data set [12] relates to VSSA, MRSA, VanA and VanB VRE. The settings on record: cited from earlier work.

SMILES strings stand for the structures. Like-named read-outs stand apart in the source and are kept apart here.

In the case of `CN[C@H](CC(C)C)C(=O)N[C@H]1C(=O)N[C@@H](CC(N)=O)C(=O)N[C@H]2C(=O)N[C@H]3C(=O)N[C@H](C(=O)N[C@H](C(=O)O)c4cc(O)cc(O)c4-c4cc3ccc4O)[C@H](O)c3ccc(c(Cl)c3)Oc3cc2cc(c3O[C@@H]2O[C@H](CO)[C@@H](O)[C@H](O)[C@H]2O[C@H]2C[C@](C)(N)[C@H](O)[C@H](C)O2)Oc2ccc(cc2Cl)[C@H]1O` [Compound 1, vancomycin], the “Antimicrobial Activity, MIC, VanB E. faecalis” value in data set [1] is 8 mg/L. Moreover, the “Antimicrobial Activity, MIC, sensitive S. aureus” value in data set [2] is 0.5 mg/L. For the same molecule, the “inhibition of bacterial cell wall synthesis (accumulation of 19)” value in data set [3] was “do not effectively inhibit bacterial cell wall synthesis”. For the same molecule, the “Antimicrobial Activity, MIC, VanA E. faecalis” value in data set [4] (BM 4166) and in [7] was 250 mg/L each time. Further, the “antibiotic susceptibility profile of the strain” value in [4] (VanA E. faecalis BM 4166) and in [10] (VanA E. faecium ATCC BAA-2317) was “resistant” throughout. The “red blood cell hemolytic activity, extended exposure” value in data set [5] is recorded as “no different from the control tigecycline”. The “reduction of binding affinity for the altered ligand” value in [6] is 1000 fold. The “Antimicrobial Activity, MIC, VanA E. faecium” value in data set [8] and in [10] (ATCC BAA-2317) was 250 mg/L in each case. Moreover, in [9], the “Antimicrobial Activity, MIC, MRSA S. aureus” value was 0.5 mg/L.

As to `CN[C@H](CC(C)C)C(=O)N[C@H]1C(=O)N[C@@H](CC(N)=O)C(=O)N[C@H]2C(=S)N[C@@H]3C(=O)N[C@H](C(=O)N[C@H](C(=O)O)c4cc(O)cc(O)c4-c4cc3ccc4O)[C@H](O)c3ccc(c(Cl)c3)Oc3cc2cc(c3OC2OC(CO)C(O)[C@H](O)[C@@H]2O[C@H]2CC(C)(NCc3ccc(-c4ccc(Cl)cc4)cc3)[C@H](O)[C@H](C)O2)Oc2ccc(cc2Cl)[C@H]1O` (some centres unmarked) [Compound 6], in data set [1], the “Antimicrobial Activity, MIC, VanB E. faecalis” value was 2 mg/L. The “Antimicrobial Activity, MIC, sensitive S. aureus” value in data set [2] was 2 mg/L. Besides, in data set [3], the “inhibition of bacterial cell wall synthesis (accumulation of 19)” value was “inhibit cell wall biosynthesis to a similar extent”. Also, the “induced cell membrane permeability (propidium uptake)” value in [11] is on record as “Neither compound significantly impacts membrane permeability”. Further, the “Antimicrobial Activity, MIC, VanA E. faecalis” value in data set [7] was 4 mg/L. Further, in data set [8], the “Antimicrobial Activity, MIC, VanA E. faecium” value is 4 mg/L. The “Antimicrobial Activity, MIC, MRSA S. aureus” value in data set [9] was 2 mg/L. Also, the “MICs (range over panel)” value in [12] is 2 to 4 µg/mL.

Values taken from US10934326B2, “Peripheral modifications on pocket-redesigned vancomycin analogs synergistically improve antimicrobial potency and durability” (priority 2016, dated 2021).
